The test system of data set [1] is BV-2 cells. Kind of data set: LPS-induced NO production in BV-2 cells. The data set is classed as cell-based. Conditions: mean ± SD of five replicates. How it is done:
(§1) NO determination: all compounds were examined for the effect on the release of NO by BV-2 cell lines using the method described previously. All experiments were carried out in five replicates. Microglia Viability Assay: The effects of compounds 1–11 on the viability of BV2 microglia were carried out by MTT assay. BV2 microglia were first seeded at a density of 4000 cells per well for 12 or 24 h using a 96-well plate and then treated with compounds at the concentrations of 1– 100 μmol/L for another 36 h. After that, cells were incubated with MTT (0.5 mg/mL) in a 5% CO2 incubator at 37 °C. Three hours later, the medium was removed, and DMSO (150 μL) was added into each well to dissolve formazan crystals. The […] absorbances were measured at 570 nm using an ELISA microplate reader (Biotek, Winooski, VT, USA).

Data set [2] has as its target AChE (Homo sapiens, UniProt P22303). In words: biochemical. To be noted: three replicates; read-out: AChE inhibitory activity IC50. The protocol: All compounds were examined for inhibitory activity against AChE using an optimized colorimetric method described previously. All tests were carried out in three replicates. Donepezil hydrochloride was taken as the positive control.

Data set [3] relates to BV2 microglia. Kind of data set: Microglia viability assay (MTT). The data set is classed as cell-based. To be noted: BV-2 cells, concentration of 100.0 μmol/L. The protocol:
as §1

Data set [4] is described as follows: DPPH free radical scavenging assay. To be noted: three replicates, read-out: antioxidant activity EC50. How it is done: An optimized colorimetric method described previously was used to evaluate the DPPH free radical scavenging activities of compounds 1–11 [37]. All tests were measured in three replicates. Vitamin C was taken as a positive control.
Data set [5] has as its system influenza A virus H1N1. The arrangement: method as in PMID 34052697. To be noted: read-out: anti-influenza A virus H1N1 activity IC50; cited from earlier work.

Structures are written as SMILES.

Sequence of AChE (P22303 32-614): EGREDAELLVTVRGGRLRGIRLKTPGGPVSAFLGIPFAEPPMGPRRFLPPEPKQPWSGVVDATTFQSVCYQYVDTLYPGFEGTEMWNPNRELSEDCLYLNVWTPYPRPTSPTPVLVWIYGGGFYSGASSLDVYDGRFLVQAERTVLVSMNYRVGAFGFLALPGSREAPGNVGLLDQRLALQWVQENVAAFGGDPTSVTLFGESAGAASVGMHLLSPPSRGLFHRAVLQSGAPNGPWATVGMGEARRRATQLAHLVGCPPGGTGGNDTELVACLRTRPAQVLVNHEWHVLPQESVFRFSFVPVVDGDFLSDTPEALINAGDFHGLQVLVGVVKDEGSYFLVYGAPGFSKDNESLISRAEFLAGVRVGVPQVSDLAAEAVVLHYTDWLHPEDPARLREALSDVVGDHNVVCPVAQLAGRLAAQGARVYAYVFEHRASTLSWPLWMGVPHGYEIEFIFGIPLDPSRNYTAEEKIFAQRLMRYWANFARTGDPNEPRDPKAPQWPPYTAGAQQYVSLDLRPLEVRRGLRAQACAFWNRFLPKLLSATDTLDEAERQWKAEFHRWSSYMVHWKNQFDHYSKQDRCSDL

On to `CC(O)C12CCC(=O)N1c1ccccc1CO2` (centres unmarked) [Compound 2, Nigrosporine B], for which the “NO accumulation induced by LPS” value in data set [1] (compound at 20 μmol/L) is 47.2 ± 0.2 ng/mL; in data set [1] (compound at 50 μmol/L) it was 41.7 ± 0.4 ng/mL; in data set [1] (compound at 100 μmol/L), 21.8 ± 0.1 ng/mL. For the same compound, the IC50 – broadly, the concentration at which inhibition is half-maximal – in data set [2] is 104 µM. Besides, in data set [3], the “cytotoxicity (BV-2 cell viability)” value is recorded as “without cytotoxicity”.

With `CC(=O)Nc1ccccc1O` [Compound 5, N-(2-hydroxyphenyl)-acetamide], in data set [4], the EC50 (usually the concentration at which the effect is half-maximal) amounted to 167 µM.

In the case of `CC[C@@H](C)C1=C2NC(=O)[C@@](O)(C/C(=C\C=O)OC)C(=O)N2[C@H](C(C)C)C(=O)N1` [deg-pyrasplorine B], the IC50 in data set [5] is 50 µM.

With `O=C1O[C@H]([C@@H](O)CO)C(O)=C1O` [Vitamin C, reference compound], in data set [4], the EC50 turned out to be 146 µM.
